SMILES strings stand for the structures. Where a name gives a salt, the structure may show the parent alone.

For series [1], the target named is T1, Cathepsin B (Homo sapiens, UniProt P07858).
T1 construct: purchased Athens Research and Technology, Inc
Kind of series: Inhibition of cathepsin B, enzyme inactivation kinetics. In kind it is biochemical. Conditions: 25° C.; for k3 / kinact/KI / k3/Ki (second order rate of inhibition): pH 6.0; for Ki: pH 6.0, substrate N-Cbz-Phe-Arg 7-amido-4-methylcoumarin 100 μM; for kinact/KI: read-out: k3/Ki (second order rate of inhibition). The method, then: Enzyme assays and kinetic measurements.
Enzyme regeneration. Cathepsin B (Athens Research and Technology, Inc.) was regenerated by incubation with 2.5 mM dithioerythritol, 2.5 mM EDTA and 0.005% (v/v) Brij-35 in 50 mM potassium phosphate pH 6.0 for 5 min. at 25° C. The excess of dithioerythritol was removed by size exclusion chromatography on a NAP-10 column (Pharmacia) equilibrated with 20 mM sodium acetate pH 5.0 containing 10 mM EDTA. Enzyme activated in this way was used within several hours.
Measurement of inactivation constants:
The reactions were incubated at 25° C. […] The reaction progress curves were recorded continuously over five half-lives. […] Briefly, the reaction progress curves were analyzed by non-linear regression to the exponential equation (2) and pseudo-first order rate coefficients (kapp.) were calculated for each inhibitor concentration. [drawing 36] Fluorescence=Ae^−k^app.^t+B (2)
Second order rate for inhibition (ki/Ki), ki and Ki were determined from equation (3) by plotting (I/kapp.) vs. [I]; [formula]
where Km is the Michaelis-Menten constant, [I] is inhibitor concentration and [S] is substrate concentration.

Series [2] has as its system IL-1 induced proteoglycan degradation of articular cartilage. Kind of series: IL-1-induced proteoglycan degradation of articular cartilage explants in vitro. Type of series: cell-based, calf. Conditions: 1×10^−6 M, IL-1 50 ng/ml, 72 h, p=0.023. The method, then:
The effect of Apo501 on IL-1 (interleukin) induced proteoglycan degradation of articular cartilage from normal calf joints was investigated in-vitro. Articular cartilage was sliced aseptically from the distal forelimb joints of less than 6-month old calves. […] The pooled, punched cartilage was washed and incubated in 20 ml of Ham's F12 medium with 5% FBS and 3% antibiotics for 72 hr at 37° C. for recovery.
Recovered explants were washed and replaced with a fresh medium. 20 μl (10 μCi/ml) of sodium [^35S] sulfate was added and cartilage explants incubated for 72 h at 37° C. to radiolabel proteoglycans. The explants was washed thoroughly (5 times) to remove free radioisotope and incubated in serum free, F-12 medium (3% Ab) overnight. Explants were then incubated in quadruplicate in fresh, serum free mediums containing varied concentrations of Apo-501 (10^−7, 10^−6, 10^−5, and 10^−4) for 24 h. […] The extent of proteoglycan degradation in each cartilage treated with different concentrations of Apo501 was determined by measuring the radioactivity of [^35S] sulfate-glycosaminoglycans by a liquid scintillation counter. Sample of 100 μl medium was added to 5 ml of scintillation cocktail (Ready Safe, Beckmann) and counted. Proteoglycan degradation was expressed as radiolabelled glycosaminoglycans released into the media (counts per min per ml) per dry weight (mg) of cartilage.

Series [3] concerns Transglutaminase. Briefly: Inhibition of transglutaminase, hydroxamate procedure, residual activity. In kind it is biochemical. Conditions: 100 μM (0.1 mM, 10% MeOH), one hour of incubation. The method, then: Inhibition of transglutaminase by compounds of formula I (Enzyme Assay).
Transglutaminase activity is measured by the […] hydroxamate procedure (J. Biol. Chem., 1971, 246, 1093). The tested compounds were dissolved in methanol and added to a buffered solution of purified Transglutaminase to give a final concentration of 0.1 mM (10% MeOH). After on hour of incubation, the solution was assayed for residual activity using the standard activity assay.

As usually defined, the melting point is the temperature of the solid-liquid transition. For the molecule `COc1nsc(N[C@@H](CC(C)C)C(=O)N2CCC[C@H]2C(=O)O)n1` [Example 11A, N-(3-methoxy-[1,2,4]thiadiazol-5-yl)-L-leucyl-L-proline], the melting point fell in the range of 89 to 92 °C.
The same measure, in the same setting: for `CC[C@H](C)[C@H](Nc1nc(OC)ns1)C(=O)N1CCC[C@H]1C(=O)OC` [Example 12A, N-(3-methoxy-[1,2,4]thiadiazol-5-yl)-L-iso-leucyl-L-proline methyl ester] the value was 129 to 130 °C; for `CC[C@H](C)[C@H](Nc1nc(OC)ns1)C(=O)N1CCC[C@H]1C(=O)O` [Example 13, N-(3-methoxy-[1,2,4]thiadiazol-5-yl)-L-iso-leucyl-L-proline], 112 to 114 °C; for `CC[C@H](C)[C@H](Nc1nc(C(=O)c2ccccc2)ns1)C(=O)N1CCC[C@H]1C(=O)O` [Example 16, N-[3-benzoyl-[1,2,4]thiadiazol-5-yl]-L-iso-leucyl-L-proline], 132 to 134 °C.
For the molecule `CC(C)C[C@H](Nc1nc(-c2ccccc2)ns1)C(=O)N1CCC[C@H]1C(=O)O` [apo5O9, N-(3-Phenyl-[1,2,4]thiadiazol-5-yl)-L-leucyl-L-proline], in series [1], the k3 came out at 0.013 s⁻¹, the Ki turned out to be 74 µM and the kinact/KI was determined as 175 M⁻¹ s⁻¹.
Take `COc1nsc(NC(=O)[C@H](Cc2ccccc2)NC(=O)OCc2ccccc2)n1` [apo201, 3-methoxy-5-(N-carbobenzyloxy-L-phenylalaninamido)-[1,2,4]thiadiazole]: in series [1], the k3 amounted to 0.013 s⁻¹, the “k3/Ki (second order rate of inhibition)” value was 658 M⁻¹ s⁻¹ and the Ki stood at 21 µM.
Turning to `CC(C)CC(Nc1nc(C(=O)O)ns1)C(=O)N1CCCC1C(=O)O` (stereo not shown) [apo310], in series [1], the k3 amounted to 0.089 s⁻¹, the Ki stood at 300 µM and the kinact/KI was 293 M⁻¹ s⁻¹.
On to `COc1nsc(N[C@@H](CC(C)C)C(=O)N2CCC[C@H]2C(=O)O)n1` [apo501, N-{(3-methoxy)-[1,2,4]thiadiazol-5-yl}-L-leucyl-L-proline. tris(hydroxymethyl)methylamine salt], for which, in series [1], the k3 was 0.015 s⁻¹, the Ki is 2.6 µM and the kinact/KI was determined as 5630 M⁻¹ s⁻¹. Moreover, in series [2], the “Reduction of IL-1-induced degradation of newly synthesized proteoglycan” value was determined as 60%.
With `COc1nsc(NC(=O)N[C@@H](CC(C)C)C(=O)N2CCC[C@H]2C(=O)O)n1` [apo503], in series [1], the k3 is 0.014 s⁻¹, the “k3/Ki (second order rate of inhibition)” value was determined as 36 M⁻¹ s⁻¹ and the Ki was 390 µM.
Regarding `COc1nsc(NC(=O)[C@H](C)NC(=O)[C@H](Cc2ccccc2)NC(=O)OCc2ccccc2)n1` [apo504, 3-methoxy-5-(N-carbobenzyloxy-L-phenylalanyl-L-alaninamido)-[1,2,4]thiadiazole], the melting point was in the range of 161 to 162 °C. In series [1], the k3 was found to be 0.032 s⁻¹, the Ki was 37 µM and the kinact/KI is 864 M⁻¹ s⁻¹. In addition, the “Inhibition of the enzyme (residual activity)” value in series [3] is recorded as “completely inhibits”.
With `Cc1nsc(N[C@@H](CC(C)C)C(=O)N2CCC[C@H]2C(=O)O)n1` [apo510, N-(3-Methyl-[1,2,4]thiadiazol-5-yl)-L-leucyl-L-proline], in series [1], the k3 amounted to 0.026 s⁻¹, the Ki was 447 µM and the kinact/KI stood at 55 M⁻¹ s⁻¹.
Take `COc1nsc(NC(=O)NC(CC(C)C)C(=O)NCCC(C)C)n1` (stereo not shown) [apo1073, 5-{3-methoxy-1,2,4-thiadiazolyl}carbamoyl-leucyl isoamylamide]: in series [1], the k3 stood at 0.032 s⁻¹, the “k3/Ki (second order rate of inhibition)” value was 84 M⁻¹ s⁻¹ and the Ki was 367 µM.
